Reference: patent publication US20110104695A1, “METHODS OF PREDICTING THERAPEUTIC EFFICACY OF CANCER THERAPY” (Epigenomics AG, priority 2009, published 2011)

Experiments:
[1] = tested on: DKK4; assay: DKK4 mRNA expression in untransfected CRC cell lines; assay type: cell-based, human; conditions: SW480 and CACO-2 cells; after 5-azacytidine treatment
Experimental: (§1) Colon cancer cell lines LOVO and DLD-1 were obtained from the Deutsche Sammlung von Mikroorganismen und Zellkulturen GmbH (Braunschweig, Germany). SW480, HT-29, HCT-116 and CACO-2 colon cancer cell lines were obtained from ATCC (Washington, D.C., USA). Cells were cultured in 90% DMEM medium supplemented with 10% fetal bovine serum and 2 mM L-glutamine (Invitrogen, Karslruhe, Germany). CACO-2 cells were maintained in 80% DMEM with 20% FBS. Cells were seeded at a density of 1×10^6 cells/60-mm dish, after twenty-four hours incubated with 5-aza-cytidine (final concentration 10 μmol/L; Sigma, Munich, Germany) or the same amount of DMSO as control. Culture medium was changed daily for 3 days with recurrent 5-aza-2-deoxycytidine additions. After 3 days, the cells were harvested for total RNA extraction with the RNeasy Total RNA Mini Kit (Qiagen, Hilden, Germany).
(§2) Genomic DNA was treated with the Epitect Bisulfite Conversion Kit (Qiagen, Hilden, Germany) according to the manufacturer's instructions and then analyzed using the MethyLight technique or MS-HRM as previously described. Cutoff values giving the best discrimination between non-neoplastic mucosa and tumor samples were determined by receiver operating characteristic (ROC) analysis. […]

[2] = tested on: TFAP2E; assay: TFAP2E mRNA expression by RT-PCR in CRC cell lines after drug treatment; assay type: cell-based, human
Experimental: as §1, with “Cells were seeded at a density of 1×10^6 cells/60-mm dish, after twenty-four hours incubated with 5-aza-cytidine (final concentration 10 μmol/L; Sigma, Munich, Germany) or the same amount of DMSO as control.” left out
The RNA and DNA extraction from cell lines or 10-25 mg of frozen tissue samples was carried out using the RNeasy Total RNA Mini Kit or the QIAmp DNA Mini Kit (Qiagen, Hilden, Germany) respectively, using the manufacturer's instructions.
Genomic DNA was treated with the Epitect Bisulfite Conversion Kit (Qiagen, Hilden, Germany) according to the manufacturer's instructions and then analyzed using the MethyLight technique or MS-HRM as previously described. Cutoff values giving the best discrimination between non-neoplastic mucosa and tumor samples were determined by receiver operating characteristic (ROC) analysis. The expression analysis of the mRNA was performed by RT-PCR with the Verso cDNA Kit (Thermo Fischer, Darmstadt, Germany) according to the manufacturer's instructions.

[3] = tested on: TFAP2E; assay: MethyLight analysis of TFAP2E methylation in CRC cell lines; assay type: cell-based, human; conditions: all CRC cell lines; after 5-azacytidine treatment
Experimental: as §1
Primers for methylated TFAP2E covered CpGs in the second CpG island (FIG. 5). […]
as §2

[4] = tested on: SW480 cells; assay: Cell survival after drug exposure (MTT assay), transfected SW480 cells
[5] = tested on: colorectal cancer; assay: Treatment response in colorectal cancer patient cohorts (RECIST or histology); assay type: in vivo, human; conditions: Cohort IV (München), primary rectal cancer, chemoradiotherapy (intravenous 5-FU and 45.0 Gy), 68 patients, histological criteria
Experimental: Samples were obtained from patients undergoing colorectal cancer surgery or chemotherapy at the University Hospitals in Munich, Mannheim, Bochum, Berlin and Dresden (all Germany). Tissues were obtained during resection of the primary tumor or by biopsy. […] Response to chemotherapy was assessed by RECIST criteria, response to chemoradiotherapy by histology as previously described.

Nc1ncn([C@@H]2O[C@H](CO)[C@@H](O)[C@H]2O)c(=O)n1 [5-azacytidine]
DKK4 expression [1]: lost
TFAP2E expression (RT-PCR) ([2]; CACO-2 and SW480 cells, 5-aza-cytidine 10 μmol/L, 3 days): showed expression after 5-aza-cytidine treatment only
TFAP2E methylation (MethyLight) [3]: declined

O=c1[nH]cc(F)c(=O)[nH]1 [5-FU, 5-fluorouracil]
responsiveness to 5-FU ([4]; SW480 transfected with both pTFAP2E and pcDNA3-Dkk4): intermediate responsiveness
decrease in survival compared to controls ([4]; SW480 transiently transfected with pTFAP2E, 5-FU 50 μg/ml, after 2 days): about 20%
increase in survival compared to controls ([4]; SW480 transiently transfected with pcDNA3-Dkk4, 5-FU 50 μg/ml, after 2 days): about 10%
patients classified as responders [5]: 47%

CC(/C=C/C(=O)NO)=C\[C@@H](C)C(=O)c1ccc(N(C)C)cc1 [Trichostatin A]
TFAP2E expression after treatment ([2]; CACO-2 cells, Trichostatin A treatment): weak expression
TFAP2E mRNA levels ([2]; CRC cell lines except CACO-2, Trichostatin A treatment): no effect
